Values belong to the compound of their own block, whether it stands above or below them.
Experiments:
[1] = target: Voltage-gated inwardly rectifying potassium channel KCNH2 (Homo sapiens, UniProt Q12809); assay: Inhibition of human ERG current in HEK293 cells by patch clamp method; format: cell-based
[2] = target: T1, Potassium voltage-gated channel subfamily A member 5 (Homo sapiens, UniProt P22460); assay: Antagonist activity at human Kv1.5 expressed in mouse L929 cells assessed as inhibition of delayed rectifier repolarization current by patch clamp assay; format: cell-based
T1 sequence (P22460 whole entry): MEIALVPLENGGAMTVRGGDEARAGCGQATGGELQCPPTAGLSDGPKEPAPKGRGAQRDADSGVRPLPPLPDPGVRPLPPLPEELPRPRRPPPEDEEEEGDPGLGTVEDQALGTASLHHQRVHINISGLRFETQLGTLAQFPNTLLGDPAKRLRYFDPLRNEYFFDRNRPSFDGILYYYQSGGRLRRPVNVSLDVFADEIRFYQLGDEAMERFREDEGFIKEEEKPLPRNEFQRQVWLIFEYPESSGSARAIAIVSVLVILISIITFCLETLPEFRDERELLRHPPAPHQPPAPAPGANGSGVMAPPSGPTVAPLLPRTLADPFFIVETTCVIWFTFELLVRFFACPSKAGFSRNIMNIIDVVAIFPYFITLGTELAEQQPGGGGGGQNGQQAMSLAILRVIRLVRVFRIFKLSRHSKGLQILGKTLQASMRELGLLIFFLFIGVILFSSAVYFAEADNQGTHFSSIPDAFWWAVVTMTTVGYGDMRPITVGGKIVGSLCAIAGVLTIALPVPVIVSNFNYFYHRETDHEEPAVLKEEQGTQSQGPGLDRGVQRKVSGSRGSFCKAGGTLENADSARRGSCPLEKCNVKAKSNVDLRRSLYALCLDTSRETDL

[3] = target: T1, Potassium voltage-gated channel subfamily A member 5; assay: Antagonist activity at human Kv1.5 expressed in mouse L929 cells assessed as inhibition of delayed rectifier repolarization current at 0.3 uM by patch clamp assay relative to control; format: cell-based
[4] = target: T2, Nuclear receptor subfamily 1 group I member 2 (Homo sapiens, UniProt O75469); assay: Transactivation of PXR (unknown origin)
T2 sequence (O75469 whole entry): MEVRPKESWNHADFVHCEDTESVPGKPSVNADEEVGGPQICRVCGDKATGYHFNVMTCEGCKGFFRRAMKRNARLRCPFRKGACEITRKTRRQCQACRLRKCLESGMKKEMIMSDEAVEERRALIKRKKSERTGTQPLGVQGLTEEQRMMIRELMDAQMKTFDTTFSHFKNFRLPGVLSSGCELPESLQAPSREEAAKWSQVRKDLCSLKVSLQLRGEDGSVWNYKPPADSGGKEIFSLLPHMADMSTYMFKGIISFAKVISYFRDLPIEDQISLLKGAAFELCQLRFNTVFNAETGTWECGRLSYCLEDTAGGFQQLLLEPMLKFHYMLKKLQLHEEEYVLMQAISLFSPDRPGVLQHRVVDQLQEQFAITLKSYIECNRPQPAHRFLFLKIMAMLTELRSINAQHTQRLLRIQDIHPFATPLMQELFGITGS

hERG (KCNH2) = hERG (KCNH2) (Homo sapiens, UniProt Q12809); assay: Inhibition of human ERG current in HEK293 cells at 10 uM by patch clamp method relative to control; format: cell-based; details: HEK293 cells expressing human ERG
Chain of hERG (KCNH2) (Q12809 whole entry): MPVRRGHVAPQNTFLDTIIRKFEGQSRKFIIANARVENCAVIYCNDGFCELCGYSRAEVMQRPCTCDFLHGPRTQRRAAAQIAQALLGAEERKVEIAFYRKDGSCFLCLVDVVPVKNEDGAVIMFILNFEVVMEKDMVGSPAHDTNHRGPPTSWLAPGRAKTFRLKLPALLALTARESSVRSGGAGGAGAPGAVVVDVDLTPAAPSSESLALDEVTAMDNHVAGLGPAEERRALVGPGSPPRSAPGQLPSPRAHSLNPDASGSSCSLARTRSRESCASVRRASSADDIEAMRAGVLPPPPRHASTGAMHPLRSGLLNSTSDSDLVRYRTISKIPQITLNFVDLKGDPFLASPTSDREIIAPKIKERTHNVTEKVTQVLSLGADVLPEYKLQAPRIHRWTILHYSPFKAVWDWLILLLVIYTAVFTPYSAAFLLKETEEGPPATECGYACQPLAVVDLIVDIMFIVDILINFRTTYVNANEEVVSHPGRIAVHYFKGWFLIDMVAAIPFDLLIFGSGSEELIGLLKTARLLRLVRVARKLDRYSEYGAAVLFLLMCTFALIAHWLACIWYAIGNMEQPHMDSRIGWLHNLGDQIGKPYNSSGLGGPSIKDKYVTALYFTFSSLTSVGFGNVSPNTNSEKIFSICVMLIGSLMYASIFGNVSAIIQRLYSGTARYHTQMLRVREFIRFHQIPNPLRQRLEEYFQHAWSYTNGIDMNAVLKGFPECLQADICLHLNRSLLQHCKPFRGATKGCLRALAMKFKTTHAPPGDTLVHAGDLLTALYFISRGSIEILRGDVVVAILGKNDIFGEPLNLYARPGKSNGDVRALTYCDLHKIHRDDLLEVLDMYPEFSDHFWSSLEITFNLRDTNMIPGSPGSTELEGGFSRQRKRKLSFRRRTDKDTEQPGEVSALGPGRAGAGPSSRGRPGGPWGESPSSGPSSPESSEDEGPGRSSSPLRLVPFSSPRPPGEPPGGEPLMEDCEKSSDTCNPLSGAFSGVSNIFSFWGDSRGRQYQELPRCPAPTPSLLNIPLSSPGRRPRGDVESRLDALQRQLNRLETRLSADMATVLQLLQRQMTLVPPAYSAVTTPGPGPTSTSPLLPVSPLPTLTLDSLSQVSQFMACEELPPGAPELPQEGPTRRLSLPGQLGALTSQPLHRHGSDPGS

Cytochrome P450 3A4 = Cytochrome P450 3A4 (Homo sapiens, UniProt P08684); assay: Inhibition of CYP3A4 (unknown origin); format: ADME
Chain of Cytochrome P450 3A4 (P08684 whole entry): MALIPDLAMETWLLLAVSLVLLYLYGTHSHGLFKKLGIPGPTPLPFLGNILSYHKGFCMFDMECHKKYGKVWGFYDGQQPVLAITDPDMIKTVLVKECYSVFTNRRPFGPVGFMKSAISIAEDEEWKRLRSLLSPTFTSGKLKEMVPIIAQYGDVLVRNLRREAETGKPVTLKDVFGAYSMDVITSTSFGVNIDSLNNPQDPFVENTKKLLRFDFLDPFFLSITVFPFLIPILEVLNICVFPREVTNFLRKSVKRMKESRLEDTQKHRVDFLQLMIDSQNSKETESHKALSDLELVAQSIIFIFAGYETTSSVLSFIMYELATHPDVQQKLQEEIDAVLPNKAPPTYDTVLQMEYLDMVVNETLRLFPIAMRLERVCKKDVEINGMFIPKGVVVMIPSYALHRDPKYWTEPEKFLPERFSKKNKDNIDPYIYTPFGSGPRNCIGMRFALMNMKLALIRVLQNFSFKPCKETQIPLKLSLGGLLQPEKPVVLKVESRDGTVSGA

Cytochrome P450 2D6 = Cytochrome P450 2D6 (Homo sapiens, UniProt P10635); assay: Inhibition of CYP2D6 (unknown origin); format: ADME
Chain of Cytochrome P450 2D6 (P10635 whole entry): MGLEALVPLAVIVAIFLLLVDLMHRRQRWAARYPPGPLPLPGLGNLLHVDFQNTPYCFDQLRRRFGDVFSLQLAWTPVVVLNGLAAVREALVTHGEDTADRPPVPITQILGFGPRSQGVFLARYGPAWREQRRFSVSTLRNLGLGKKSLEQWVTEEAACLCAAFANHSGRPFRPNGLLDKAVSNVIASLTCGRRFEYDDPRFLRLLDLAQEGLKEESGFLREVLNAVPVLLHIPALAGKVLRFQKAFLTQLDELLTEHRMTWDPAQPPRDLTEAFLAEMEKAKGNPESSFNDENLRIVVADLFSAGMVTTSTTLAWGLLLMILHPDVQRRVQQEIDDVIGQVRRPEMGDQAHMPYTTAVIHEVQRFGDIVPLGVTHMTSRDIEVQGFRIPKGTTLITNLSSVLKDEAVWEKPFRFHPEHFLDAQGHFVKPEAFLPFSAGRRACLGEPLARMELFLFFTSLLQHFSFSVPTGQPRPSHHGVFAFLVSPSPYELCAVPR

Cytochrome P450 2C19 = Cytochrome P450 2C19 (Homo sapiens, UniProt P33261); assay: Inhibition of CYP2C19 (unknown origin); format: ADME
Chain of Cytochrome P450 2C19 (P33261 whole entry): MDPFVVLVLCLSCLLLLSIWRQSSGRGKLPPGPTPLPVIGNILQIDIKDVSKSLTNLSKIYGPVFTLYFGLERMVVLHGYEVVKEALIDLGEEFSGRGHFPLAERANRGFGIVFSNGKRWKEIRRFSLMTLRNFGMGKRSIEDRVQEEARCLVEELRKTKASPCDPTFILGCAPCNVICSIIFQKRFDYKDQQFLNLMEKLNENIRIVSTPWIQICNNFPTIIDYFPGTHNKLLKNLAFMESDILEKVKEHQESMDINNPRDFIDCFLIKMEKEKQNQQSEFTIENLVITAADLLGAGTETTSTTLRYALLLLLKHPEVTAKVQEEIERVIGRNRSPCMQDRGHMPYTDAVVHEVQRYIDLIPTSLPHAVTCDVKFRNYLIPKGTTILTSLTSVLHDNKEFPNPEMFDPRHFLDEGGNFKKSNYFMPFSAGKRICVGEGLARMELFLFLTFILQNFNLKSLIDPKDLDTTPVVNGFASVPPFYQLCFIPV

Cytochrome P450 2C9 = Cytochrome P450 2C9 (Homo sapiens, UniProt P11712); assay: Inhibition of CYP2C9 (unknown origin); format: ADME
Chain of Cytochrome P450 2C9 (P11712 whole entry): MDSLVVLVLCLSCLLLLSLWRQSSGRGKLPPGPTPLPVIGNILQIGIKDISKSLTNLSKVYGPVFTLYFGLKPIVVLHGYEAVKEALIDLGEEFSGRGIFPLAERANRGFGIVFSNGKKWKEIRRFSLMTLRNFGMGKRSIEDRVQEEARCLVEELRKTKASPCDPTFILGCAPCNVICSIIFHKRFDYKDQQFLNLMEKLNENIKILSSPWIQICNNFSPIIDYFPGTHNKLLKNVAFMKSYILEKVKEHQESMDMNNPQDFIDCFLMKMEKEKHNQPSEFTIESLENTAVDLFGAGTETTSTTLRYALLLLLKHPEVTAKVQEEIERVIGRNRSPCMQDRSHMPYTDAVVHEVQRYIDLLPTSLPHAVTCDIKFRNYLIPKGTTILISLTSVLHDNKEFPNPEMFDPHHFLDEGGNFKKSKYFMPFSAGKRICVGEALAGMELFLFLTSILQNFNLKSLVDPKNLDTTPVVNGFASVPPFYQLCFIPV

Cytochrome P450 1A2 = target: T3, Cytochrome P450 1A2 (Homo sapiens, UniProt P05177); assay: Inhibition of CYP1A2 (unknown origin); format: ADME
T3 sequence (P05177 whole entry): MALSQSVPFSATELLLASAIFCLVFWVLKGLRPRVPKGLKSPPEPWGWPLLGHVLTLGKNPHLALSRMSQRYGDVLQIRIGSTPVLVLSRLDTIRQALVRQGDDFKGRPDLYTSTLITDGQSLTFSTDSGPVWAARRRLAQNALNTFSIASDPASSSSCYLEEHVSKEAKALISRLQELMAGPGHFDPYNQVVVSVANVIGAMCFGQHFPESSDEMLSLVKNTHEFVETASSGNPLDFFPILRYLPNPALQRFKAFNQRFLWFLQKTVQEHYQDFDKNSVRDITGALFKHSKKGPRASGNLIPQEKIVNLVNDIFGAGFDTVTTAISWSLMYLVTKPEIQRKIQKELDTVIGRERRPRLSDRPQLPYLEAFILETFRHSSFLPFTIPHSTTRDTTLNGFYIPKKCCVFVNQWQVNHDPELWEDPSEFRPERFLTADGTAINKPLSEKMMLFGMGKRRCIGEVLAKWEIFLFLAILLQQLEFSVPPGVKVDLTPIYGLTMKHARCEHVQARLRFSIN

[5] = Clearance in Sprague-Dawley rat at 1 mg/kg, iv; format: ADME, organism-based; set-up: dose 1 mg/kg, route intravenous; details: in vivo
[6] = Half life in Sprague-Dawley rat at 1 mg/kg, iv; format: ADME, organism-based; set-up: dose 1 mg/kg, route intravenous; details: in vivo

Chain of Voltage-gated inwardly rectifying potassium channel KCNH2 (Q12809 whole entry): as the sequence (Q12809 whole entry) above

SMILES: CC1=C(c2ncnn2C2CCCC2)[C@@H](c2ccc(Cl)c(Cl)c2)n2nccc2N1
INH [1]: 6 µM | IC50 [2]: 37 nM

SMILES: CC1=C(c2ncn(-c3ccccc3F)n2)[C@@H](c2ccc(Cl)c(Cl)c2)n2nc(C)cc2N1
inhibition [3]: 23%

SMILES: CCOc1cccc(-n2ncnc2C2=C(C)Nc3cc(C(F)(F)F)nn3[C@@H]2c2ccc(Cl)c(Cl)c2)n1
EC20 [4]: 1100 nM | IC50 [2]: 223 nM

SMILES: CC1=C(c2ncnn2-c2ccccn2)[C@@H](c2ccc(Cl)c(Cl)c2)n2nc(C(F)(F)F)cc2N1
inhibition [3]: 11%

SMILES: CC1=C(c2ncnn2C2CCC(C(F)(F)F)CC2)[C@@H](c2ccc(Cl)c(Cl)c2)n2nc(C(F)(F)F)cc2N1 (single isomer, unassigned; isomer 2)
INH (Cytochrome P450 3A4): 25 µM | INH (Cytochrome P450 2D6): 27 µM | INH (Cytochrome P450 2C19): 7 µM | INH (Cytochrome P450 2C9): 8 µM | INH (Cytochrome P450 1A2): 40 µM | EC20 [4]: 3600 nM | IC50 [2]: 607 nM

SMILES: CC1=C(c2ncnn2-c2ccc(C)cc2)[C@@H](c2ccc(Cl)c(Cl)c2)n2nccc2N1
IC50 [2]: 80 nM

SMILES: COc1ccc(-n2cnc(C3=C(C)Nc4cc(C)nn4[C@@H]3c3ccc(Cl)c(Cl)c3)n2)cc1
inhibition [3]: 5%

SMILES: COc1ccccc1-n1cnc(C2=C(C)Nc3cc(C)nn3[C@@H]2c2ccc(Cl)c(Cl)c2)n1
inhibition [3]: 4%

SMILES: CC1=C(c2ncnn2C2CCC2)[C@@H](c2ccc(Cl)c(Cl)c2)n2nc(C(F)(F)F)cc2N1
IC50 [2]: 165 nM

SMILES: CC1=C(c2ncnn2CC(F)(F)F)[C@@H](c2ccc(Cl)c(Cl)c2)n2nccc2N1
IC50 [2]: 200 nM

SMILES: COc1cccc(-n2ncnc2C2=C(C)Nc3cc(C(F)(F)F)nn3[C@@H]2c2ccc(Cl)c(Cl)c2)n1
EC20 [4]: 960 nM | inhibition at 10 µM (hERG (KCNH2)): 98% | IC50 [2]: 87 nM

Second part, led by results:

IC50 [2]: 127 nM
SMILES: CC1=C(c2ncnn2C2CCCCC2)[C@@H](c2ccc(Cl)c(Cl)c2)n2nc(C)cc2N1

EC20 [4]: 110 nM | IC50 [2]: 128 nM
SMILES: CCn1ccnc1C1=C(C)Nc2cc(C(F)(F)F)nn2[C@@H]1c1ccc(Cl)c(Cl)c1

IC50 [2]: 97 nM
SMILES: CC1=C(c2ncnn2-c2cccc(F)c2)[C@@H](c2ccc(Cl)c(Cl)c2)n2nccc2N1

IC50 [2]: 89 nM
SMILES: CC1=C(c2ncnn2C(C)C)[C@@H](c2ccc(Cl)c(Cl)c2)n2nccc2N1
inhibition at 10 µM (hERG (KCNH2)): 26%

clearance [5]: 101 mL/min/kg | half-life [6]: 36 min | IC50 [2]: 94 nM
SMILES: CC1=C(c2ncnn2C2CCC2)[C@@H](c2ccc(Cl)c(Cl)c2)n2nc(C)cc2N1
inhibition at 10 µM (hERG (KCNH2)): 40%

IC50 [2]: 190 nM
SMILES: CC1=C(c2ncnn2-c2cccc(Cl)n2)[C@@H](c2ccc(Cl)c(Cl)c2)n2nc(C(F)(F)F)cc2N1

EC20 [4]: 140 nM | IC50 [2]: 96 nM
SMILES: CC1=C(c2ncnn2-c2cccc(C(F)(F)F)n2)[C@@H](c2ccc(Cl)c(Cl)c2)n2nc(C(F)(F)F)cc2N1

inhibition [3]: 14%
SMILES: CC1=C(c2ncn(-c3ccc(C)cc3)n2)[C@@H](c2ccc(Cl)c(Cl)c2)n2nc(C)cc2N1

inhibition [3]: 25%
SMILES: COCc1cc2n(n1)[C@H](c1ccc(Cl)c(Cl)c1)C(c1ncnn1C1CCC1)=C(C)N2

IC50 [2]: 223 nM
SMILES: CC1=C(c2ncnn2C(C)(C)C)[C@@H](c2ccc(Cl)c(Cl)c2)n2nccc2N1

IC50 [2]: 722 nM
SMILES: CC1=C(c2ncn(-c3ccccc3C)n2)[C@@H](c2ccc(Cl)c(Cl)c2)n2nc(C)cc2N1

IC50 [2]: 74 nM
SMILES: CC1=C(c2ncnn2-c2ccccc2F)[C@@H](c2ccc(Cl)c(Cl)c2)n2nccc2N1

— ChEMBL document CHEMBL2331425, “Triazolo and imidazo dihydropyrazolopyrimidine potassium channel antagonists” (Bioorg Med Chem Lett, 2013)
